# In US4005213A, “2,5-Substituted-1,3,4-thiadiazoles as fungicides” (Schering Aktiengesellschaft, priority 1968, dated 1977):
# What was measured:
# Rhizoctonia solani [1] = assay: Pea test in soil inoculated with Rhizoctonia solani (Example 3); format: in vivo; conditions: for Number of sound peas after 3 wks.: 25 grains seeded; for Root evaluation (1-4): 3 weeks
# Description: Steamed compost soil was inoculated with mycelium of Rhizoctonia solani. After homogeneous mixture of the products with the infested soil, the products were present in the form of 20% powder preparations, the seeding of 25 grains of marrow peas of the variety Miracle of Kelvedon per concentration was effected without waiting period in clay dishes holding 1 liter of soil. The table lists the number of germinated sound peas, the weight of the fresh plant, and a root evaluation after a cultivation period of 3 weeks at 22°-25° C.
# [2] = system: Fusarium oxysporum f. callistephi; assay: Soil inoculated with Fusarium oxysporum f. callistephi, Callistephus chinensis host plants (Example 5); format: in vivo; conditions: four seedlings per concentration
# Description: Steamed compost soil was inoculated with a spore suspension of Fusarium oxysporum f. callistephi. After homogeneous mixture of the products with the infested soil, the products were present as 20% powder preparations, and after a waiting period of 8 days, there were set out per concentration four seedlings of Callistephus chinensis, master aster "Sun Ray" as host plants.
# Pythium ultimum [3] = assay: Pea test in soil inoculated with Pythium ultimum (Example 2); format: in vivo; design: key to Root evaluation (1-4): 4 = white roots, no necroses … 1 = severe necroses, roots rotted; conditions: for Number of sound peas after 3 wks.: 25 grains seeded; for Root evaluation (1-4): 3 weeks
# Protocol: Steamed compost soil was inoculated with mycelium of Pythium ultimum. […] The following table lists the number of germinated sound peas, the weight of the fresh plant, and a root evaluation after a cultivation period of 3 weeks at 22°-25° C.
# 4 = white roots, without fungus necroses
# 3 = white roots, slight fungus necroses
# 2 = brown roots, more intense fungus necroses
# 1 = severe fungus necroses, roots rotted
# Pythium ultimum [4] = assay: Limit concentration of soil-fungicidal effectiveness, Pythium ultimum infested soil, peas (Example 1); format: in vivo; conditions: Globisporangium ultimum, 20 to 23 days, 22°-25° C., germination at least 90% vs steamed soil
# Protocol: Limit concentrations of the soil-fungicidal effectiveness at homogeneous mixture of the products with the infested soil. Basic condition in the evaluation are a sound root formation without fungus necroses and germination of the seed of at least 90% compared with the result obtained in steamed soil. Per concentration there were seeded 25 grains of peas of the variety "Miracle of Kelvedon" (marrow pea) without a waiting period. the cultivation time in the tests was 20 to 23 days at a temperature of 22°-25° C. Four commercial products were included in the test series.
# Pythium ultimum: Steamed compost soil was inoculated with mycelium of Pythium ultimum
# Stemphylium ilicis = assay: Agar test, Stemphylium ilicis (Example 7); format: cell-based; conditions: 10 ppm in malt extract agar, 5 days at 22° C.; control 100
# Protocol: (§1) The fungicidal action of the agents according to the invention was tested in artificial nutrient media against plant-pathogenic fungi in Petri dishes (agar test). The procedure was to sterilize the medium consisting of 2% malt extract and 1.5% agar-agar powder. Before the solidification of the medium, the active substances were added to it, mixing thoroughly, so that the medium received 10 parts of active substance per million (ppm). After the solidification of the medium, the latter was inoculated with a platinum dropper which contained 100 spores each of the fungi to be tested, and after 5 days at 22° C., an evaluation was made by measuring the diameter of the colonies in mm.
# Aspergillus niger = assay: Agar test, Aspergillus niger (Example 7); format: cell-based; conditions: 10 ppm in malt extract agar, 5 days at 22° C.; control 100
# Protocol: as §1
# Pythium ultimum [5] = assay: Fungicidal effect in the vapor phase, Pythium ultimum (Example 11); format: cell-based; conditions: even at 1 mg active ingredient per liter; 3 days, 22° C.; 10% powder
# Protocol: (§2) Nutrient medium inoculated with nycelium of Pythium ultimum or Rhizoctonia solani in open Petri dishes was placed in glass vessels 12 cm tall. First the quantity of product as a 10% powder preparation had been placed on the bottom of the glasses. After a reaction time of 3 days (Pythium) and 5 days (Rhizoctonia) at a temperature of 22° C. in the covered glass vessel, the mycelium growth was evaluated.
# Rhizoctonia solani [6] = assay: Fungicidal effect in the vapor phase, Rhizoctonia solani (Example 11); format: cell-based; conditions: even at 1 mg active ingredient per liter; 5 days, 22° C.; 10% powder
# Protocol: as §2
# Meloidogyne incognita = assay: Nematocidal action against root gall nematodes, cucumber (Example 8); format: in vivo; conditions: reduction of attack, 30 days
# Protocol: The products as 20% powder preparations were homogeneously admixed with a compost soil heavily infested by root gall nematodes. Without a waiting period, 20 cucumber seeds per concentration were seeded. After a cultivation time of 30 days at a temperature of 23°-25° C., the nematocidal action was evaluated by counting the root galls formed in the waterbath. The following table states the reduction of attack in percent. In the control, an average of 90 root galls per seedling had formed.
# Damping-off Fungi = assay: Cotton seed disinfection in normal compost soil (Example 6); format: in vivo; conditions: 100 mg active ingr. per kg of seed, 15 days, 22°-25° C.
# Protocol: Cotton seeds disinfected with 10% formulations were seeded in normal compost soil (Damping-off Fungi), 25 grains per concentration. After a cultivation time of 15 days at 22°-25° C., the number of germinated sound cotton seedlings and their weight as fresh plants were determined.
# [7] = 10 mg active ingr. per liter of soil
# [8] = 20 mg active ingr. per liter of soil
# [9] = 30 mg active ingr. per liter of soil
# [10] = 50 mg active ingr. per liter of soil
# [11] = 100 mg active ingr. per liter of soil
# [12] = 200 mg active ingr. per liter of soil
# [13] = 40 mg active substance per liter of soil
# [14] = 60 mg active substance per liter of soil
smiles,measurement,setting,value
"COc1cc(Cl)c(OC)cc1Cl [1,4-dichloro-2,5-dimethoxybenzene, reference compound]",Number of sound peas after 3 wks.,Rhizoctonia solani [1]; [7],0
same,Number of sound peas after 3 wks.,Rhizoctonia solani [1]; [8],0
same,Number of sound peas after 3 wks.,Rhizoctonia solani [1]; [9],21
same,Number of sound peas after 3 wks.,Rhizoctonia solani [1]; 40 mg active ingr. per liter of soil,22
same,No. of attacked plants after 3 weeks,[2]; [10],4
same,No. of attacked plants after 3 weeks,[2]; [11],4
same,No. of attacked plants after 3 weeks,[2]; [12],4
same,Number of sound peas after 3 wks.,Pythium ultimum [3]; [12],2
"CS(=O)(=O)c1nnc(C(F)(F)F)s1 [Compound 1, 2-trifluoromethyl-5-methylsulfonyl-1,3,4-thiadiazole]",minimal effective concentration,Pythium ultimum [4],10 µg/mL
same,"diameter of the colonies, Stemphylium ilicis",Stemphylium ilicis,0 mm
same,"diameter of the colonies, Aspergillus niger",Aspergillus niger,0 mm
same,Root evaluation (1-4),Pythium ultimum [3]; [7],4
same,Root evaluation (1-4),Pythium ultimum [3]; [8],4
same,Number of sound peas after 3 wks.,Pythium ultimum [3]; [8],22
same,Root evaluation (1-4),Pythium ultimum [3]; [9],4
same,"mycelium growth, Pythium ultimum, vapor phase",Pythium ultimum [5],no mycelium growth
same,"mycelium growth, Rhizoctonia solani, vapor phase",Rhizoctonia solani [6],no mycelium growth
"C[S+]([O-])c1nnc(C(Cl)Cl)s1 (centres unmarked) [Compound 3, 2-dichloromethyl-5-methylsulfinyl-1,3,4-thiadiazole]",Number of sound peas after 3 wks.,Rhizoctonia solani [1]; [7],0
same,Root evaluation (1-4),Rhizoctonia solani [1]; [8],1
same,Root evaluation (1-4),Rhizoctonia solani [1]; [9],4
same,Nematocidal action in % (Meloidogyne incognita),Meloidogyne incognita; [13],100%
same,Nematocidal action in % (Meloidogyne incognita),Meloidogyne incognita; [14],100%
same,Sound plants in %,Damping-off Fungi,100%
same,minimal effective concentration,Pythium ultimum [4],10 µg/mL
same,"diameter of the colonies, Stemphylium ilicis",Stemphylium ilicis,0 mm
same,"diameter of the colonies, Aspergillus niger",Aspergillus niger,50 mm
same,Root evaluation (1-4),Pythium ultimum [3]; [7],4
same,Root evaluation (1-4),Pythium ultimum [3]; [8],4
same,Root evaluation (1-4),Pythium ultimum [3]; [9],4
"CC[S+]([O-])c1nnc(C(Cl)Cl)s1 (centres unmarked) [Compound 4, 2-dichloromethyl-5-ethylsulfinyl 1,3,4-thiadiazole]",Nematocidal action in % (Meloidogyne incognita),Meloidogyne incognita; [13],96%
same,Nematocidal action in % (Meloidogyne incognita),Meloidogyne incognita; [14],99%
same,minimal effective concentration,Pythium ultimum [4],100 µg/mL
"CCC[S+]([O-])c1nnc(C(Cl)Cl)s1 (centres unmarked) [Compound 5, 2-dichloromethyl-5-propylsulfinyl-1,3,4-thiadiazole]",Nematocidal action in % (Meloidogyne incognita),Meloidogyne incognita; [13],90%
same,Nematocidal action in % (Meloidogyne incognita),Meloidogyne incognita; [14],98%
same,minimal effective concentration,Pythium ultimum [4],100 µg/mL
"C[S+]([O-])c1nnc(C(Cl)(Cl)Cl)s1 (centres unmarked) [Compound 8, 2-trichloromethyl-5-methylsulfinyl-1,3,4-thiadiazole]",Root evaluation (1-4),Rhizoctonia solani [1]; [7],4
same,Root evaluation (1-4),Rhizoctonia solani [1]; [8],4
same,Root evaluation (1-4),Rhizoctonia solani [1]; [9],4
same,minimal effective concentration,Pythium ultimum [4],20 µg/mL
same,"diameter of the colonies, Stemphylium ilicis",Stemphylium ilicis,0 mm
same,"diameter of the colonies, Aspergillus niger",Aspergillus niger,0 mm
same,Root evaluation (1-4),Pythium ultimum [3]; [7],1
same,Root evaluation (1-4),Pythium ultimum [3]; [8],4
same,Root evaluation (1-4),Pythium ultimum [3]; [9],4
"CC[S+]([O-])c1nnc(C(Cl)(Cl)Cl)s1 (centres unmarked) [Compound 9, 2-trichloromethyl-5-ethylsulfinyl-1,3,4-thiadiazole]",Root evaluation (1-4),Rhizoctonia solani [1]; [7],4
same,Root evaluation (1-4),Rhizoctonia solani [1]; [8],4
same,Root evaluation (1-4),Rhizoctonia solani [1]; [9],4
same,minimal effective concentration,Pythium ultimum [4],200 µg/mL
same,"diameter of the colonies, Stemphylium ilicis",Stemphylium ilicis,0 mm
same,"diameter of the colonies, Aspergillus niger",Aspergillus niger,0 mm
"CCS(=O)(=O)c1nnc(C(Cl)Cl)s1 [Compound 18, 2-dichloromethyl-5-ethylsulfonyl-1,3,4-thiadiazole]",Nematocidal action in % (Meloidogyne incognita),Meloidogyne incognita; [13],61%
same,Nematocidal action in % (Meloidogyne incognita),Meloidogyne incognita; [14],90%
same,minimal effective concentration,Pythium ultimum [4],> 200 µg/mL
same,"diameter of the colonies, Stemphylium ilicis",Stemphylium ilicis,0 mm
same,"diameter of the colonies, Aspergillus niger",Aspergillus niger,0 mm
"CCCS(=O)(=O)c1nnc(C(Cl)Cl)s1 [Compound 19, 2-dichloromethyl-5-propylsulfonyl-1,3,4-thiadiazole]",Nematocidal action in % (Meloidogyne incognita),Meloidogyne incognita; [13],72%
same,Nematocidal action in % (Meloidogyne incognita),Meloidogyne incognita; [14],82%
same,minimal effective concentration,Pythium ultimum [4],100 µg/mL
same,"diameter of the colonies, Stemphylium ilicis",Stemphylium ilicis,0 mm
same,"diameter of the colonies, Aspergillus niger",Aspergillus niger,0 mm
"CCCS(=O)(=O)c1nnc(C(Cl)(Cl)Cl)s1 [Compound 23, 2-trichloromethyl-5-propylsulfonyl-1,3,4-thiadiazole]",Root evaluation (1-4),Rhizoctonia solani [1]; [7],1
same,Root evaluation (1-4),Rhizoctonia solani [1]; [8],3
same,Root evaluation (1-4),Rhizoctonia solani [1]; [9],4
same,minimal effective concentration,Pythium ultimum [4],150 µg/mL
same,"diameter of the colonies, Stemphylium ilicis",Stemphylium ilicis,0 mm
same,"diameter of the colonies, Aspergillus niger",Aspergillus niger,0 mm
"CS(=O)(=O)c1nnc(C(Br)Br)s1 [Compound 32, 2-dibromomethyl-5-methylsulfonyl-1,3,4-thiadiazole]",minimal effective concentration,Pythium ultimum [4],20 µg/mL
same,"diameter of the colonies, Stemphylium ilicis",Stemphylium ilicis,0 mm
same,"diameter of the colonies, Aspergillus niger",Aspergillus niger,0 mm
"C[S+]([O-])c1nnc(C(F)(F)F)s1 (centres unmarked) [Compound 35, 2-trifluoromethyl-5-methylsulfinyl-1,3,4-thiadiazole]",minimal effective concentration,Pythium ultimum [4],10 µg/mL
same,"mycelium growth, Pythium ultimum, vapor phase",Pythium ultimum [5],no mycelium growth
same,"mycelium growth, Rhizoctonia solani, vapor phase",Rhizoctonia solani [6],no mycelium growth
"CC[S+]([O-])c1nnc(C(F)(F)F)s1 (centres unmarked) [Compound 36, 2-trifluoromethyl-5-ethylsulfinyl-1,3,4-thiadiazole]",minimal effective concentration,Pythium ultimum [4],10 µg/mL
same,"mycelium growth, Pythium ultimum, vapor phase",Pythium ultimum [5],no mycelium growth
same,"mycelium growth, Rhizoctonia solani, vapor phase",Rhizoctonia solani [6],no mycelium growth
"CCS(=O)(=O)c1nnc(C(F)(F)F)s1 [Compound 40, 2-trifluoromethyl-5-ethylsulfonyl-1,3,4-thiadiazole]",minimal effective concentration,Pythium ultimum [4],10 µg/mL
same,"mycelium growth, Pythium ultimum, vapor phase",Pythium ultimum [5],no mycelium growth
same,"mycelium growth, Rhizoctonia solani, vapor phase",Rhizoctonia solani [6],no mycelium growth
"O=C1C2CC=CCC2C(=O)N1SC(Cl)(Cl)Cl (centres unmarked) [N-(trichloromethylthio)-cyclohex-4-ene-1,2-dicarboximide]",No. of attacked plants after 3 weeks,[2]; [10],4
same,No. of attacked plants after 3 weeks,[2]; [11],4
same,No. of attacked plants after 3 weeks,[2]; [12],4
same,Root evaluation (1-4),Pythium ultimum [3]; [12],1
same,Number of sound peas after 3 wks.,Pythium ultimum [3]; [12],13
